Measured values as given in patent US4820695A, “C-20-dihydro-deoxy-(cyclic amino)-derivatives of macrolide antibiotics” (priority 1987, dated 1989).
≈ marks a conversion by molar mass, not a printed value. Where two headings read alike, the source gives them in different places.

What was measured:
Escherichia coli N10 = assay: MIC, standard agar-dilution assay (Table IX); assay type: cell-based; details: read-out: MIC
[1] = test system: Streptococcus Group D 2041; assay: MIC, standard agar-dilution assay (Table IX); assay type: cell-based; details: GROUPD2041, read-out: MIC
Staphyloccus aureus X1.1 = assay: MIC, standard agar-dilution assay (Table IX); assay type: cell-based, Staphylococcus aureus; details: Staphylococcus aureus, read-out: MIC
Escherichia coli EC14 = assay: MIC, standard agar-dilution assay (Table IX); assay type: cell-based; details: read-out: MIC
[2] = test system: Streptococcus pneumoniae Park I; assay: MIC, standard agar-dilution assay (Table IX); assay type: cell-based; details: Streptococcus pneumoniae Park I; agar-dilution; read-out: MIC
[3] = test system: Staphylococcus aureus V41; assay: MIC, standard agar-dilution assay (Table IX); assay type: cell-based; details: Staphylococcus aureus V41, Penicillin-resistant strain, read-out: MIC
[4] = test system: Streptococcus pyogenes C203; assay: MIC, standard agar-dilution assay (Table IX); assay type: cell-based; details: read-out: MIC
[5] = test system: Haemophilus influenzae 76; assay: MIC, standard agar-dilution assay (Table IX); assay type: cell-based; details: Haemophilus influenzae 76, Ampicillin-resistant strain, read-out: MIC
[6] = test system: Staphylococcus aureus S13E; assay: MIC, standard agar-dilution assay (Table IX); assay type: cell-based; details: Staphylococcus aureus, S13E
[7] = test system: Pasteurella multocida 17E; assay: MIC, broth-dilution microtiter test (Table X); assay type: cell-based; details: Bovine isolate, read-out: MIC
Excerpt: (§1) The MIC's in Table X were obtained using conventional broth-dilution microtiter tests.

[8] = test system: Mycoplasma hyopneumoniae S5972; assay: MIC, broth-dilution microtiter test (Table X); assay type: cell-based; details: Mesomycoplasma hyopneumoniae, read-out: MIC
Excerpt: as §1

Mycoplasma synoviae 40A = assay: MIC, broth-dilution microtiter test (Table X); assay type: cell-based; details: Mycoplasmopsis synoviae, read-out: MIC
Excerpt: as §1

Mycoplasma hyorhinis 29E = assay: MIC, broth-dilution microtiter test (Table X); assay type: cell-based; details: read-out: MIC
Excerpt: as §1

[9] = test system: Pasteurella hemolytica 22C; assay: MIC, broth-dilution microtiter test (Table X); assay type: cell-based; details: read-out: MIC
Excerpt: as §1

Streptococcus sp. 19F = assay: MIC, broth-dilution microtiter test (Table X); assay type: cell-based; details: read-out: MIC
Excerpt: as §1

[10] = test system: Mycoplasma gallisepticum 29C; assay: MIC, broth-dilution microtiter test (Table X); assay type: cell-based; details: Mycoplasmoides gallisepticum, read-out: MIC
Excerpt: as §1

Staphylococcus aureus = assay: MIC, broth-dilution microtiter test (Table X); assay type: cell-based; details: read-out: MIC
Excerpt: as §1

[11] = test system: Pasteurella multocida 60A; assay: MIC, broth-dilution microtiter test (Table X); assay type: cell-based; details: Avian isolate, read-out: MIC
Excerpt: as §1

Klebsiella X26 = assay: MIC, standard agar-dilution assay (Table IX); assay type: cell-based; details: read-out: MIC
Escherichia coli TEM = assay: MIC, standard agar-dilution assay (Table IX); assay type: cell-based; details: read-out: MIC
[12] = test system: Staphylococcus epidermidis EPI1; assay: MIC, standard agar-dilution assay (Table IX); assay type: cell-based; details: Staphylococcus epidermidis EPI1; agar-dilution; read-out: MIC
[13] = test system: Haemophilus influenzae C.L.; assay: MIC, standard agar-dilution assay (Table IX); assay type: cell-based; details: Ampicillin-sensitive strain, read-out: MIC
[14] = Titratable groups in 66% aqueous DMF (Tables XIV-XVI); assay type: physicochemical
Excerpt: ^c Run in 66% aqueous DMF
^d Run in 66% aqueous DMF

[15] = test system: Streptococcus Group D X66; assay: MIC, standard agar-dilution assay (Table IX); assay type: cell-based; details: read-out: MIC
[16] = test system: Staphylococcus aureus X400; assay: MIC, standard agar-dilution assay (Table IX); assay type: cell-based; details: Staphylococcus aureus X400, Methicillin-resistant strain, read-out: MIC
[17] = test system: Staphylococcus epidermidis 222; assay: MIC, standard agar-dilution assay (Table IX); assay type: cell-based; details: read-out: MIC
[18] = Titratable groups (first value)

SMILES: CCC1OC(=O)CC(O)C(C)C(OC2OC(C)C(OC3CC(C)(O)C(O)C(C)O3)C(N(C)C)C2O)C(CCN2CCCCCCC2)CC(C)C(=O)C=CC(C)=CC1COC1OC(C)C(O)C(O)C1OC (stereo not drawn) [Compound M4, 20-DH-DO-20-(octahydroazocin-1-yl)macrocin]
- MIC (Escherichia coli N10): > 128 µg/mL
- MIC [1]: > 128 µg/mL
- MIC (Staphyloccus aureus X1.1): 4 µg/mL (≈ 4 µM)
- MIC (Escherichia coli EC14): > 128 µg/mL
- MIC [2]: 32 µg/mL (≈ 32 µM)
- MIC [3]: 4 µg/mL (≈ 4 µM)
- MIC [4]: 2 µg/mL (≈ 2 µM)
- MIC [5]: 128 µg/mL (≈ 128 µM)
- MIC [6]: 4 µg/mL (≈ 4 µM)
- MIC [7]: > 50 µg/mL
- MIC [8]: 6.25 µg/mL (≈ 6.25 µM)
- MIC (Mycoplasma synoviae 40A): 6.25 µg/mL (≈ 6.25 µM)
- MIC (Mycoplasma hyorhinis 29E): > 50 µg/mL
- MIC [9]: > 50 µg/mL
- MIC (Streptococcus sp. 19F): 12.5 µg/mL (≈ 12.5 µM)
- MIC [10]: 3.12 µg/mL (≈ 3.12 µM)
- MIC (Staphylococcus aureus): 12.5 µg/mL (≈ 12.5 µM)
- MIC [11]: > 50 µg/mL
- MIC (Klebsiella X26): > 128 µg/mL
- MIC (Escherichia coli TEM): > 128 µg/mL
- MIC [12]: 4 µg/mL (≈ 4 µM)
- MIC [13]: 128 µg/mL (≈ 128 µM)
- pKa ([14]; 66% aqueous DMF, read-out: Titratable groups): 9.25
- pKa ([14]; 66% aqueous DMF, read-out: Titratable groups (first value)): 6.9
- MIC [15]: > 128 µg/mL
- MIC [16]: 8 µg/mL (≈ 8.01 µM)
- MIC [17]: 2 µg/mL (≈ 2 µM)

SMILES: CCC1OC(=O)CC(O)C(C)C(OC2OC(C)C(O)C(N(C)C)C2O)C(CCN2CCCC(C(=O)N(CC)CC)C2)CC(C)C(=O)C=CC(C)=CC1COC1OC(C)C(O)C(OC)C1OC (stereo not drawn) [Compound D15, 20-DH-DO-20-[3-(N,N-diethylcarbamoyl)piperidin-1-yl]desmycosin]
- MIC (Escherichia coli N10): > 128 µg/mL
- MIC [1]: 32 µg/mL (≈ 34 µM)
- MIC (Staphyloccus aureus X1.1): 2 µg/mL (≈ 2.13 µM)
- MIC (Escherichia coli EC14): > 128 µg/mL
- MIC [2]: 1 µg/mL (≈ 1.06 µM)
- MIC [3]: 2 µg/mL (≈ 2.13 µM)
- MIC [4]: 0.5 µg/mL (≈ 0.532 µM)
- MIC [5]: 32 µg/mL (≈ 34 µM)
- MIC [6]: 2 µg/mL (≈ 2.13 µM)
- MIC [7]: 12.5 µg/mL (≈ 13.3 µM)
- MIC [8]: 3.12 µg/mL (≈ 3.32 µM)
- MIC (Mycoplasma synoviae 40A): 1.56 µg/mL (≈ 1.66 µM)
- MIC (Mycoplasma hyorhinis 29E): > 50 µg/mL
- MIC [9]: 25 µg/mL (≈ 26.6 µM)
- MIC (Streptococcus sp. 19F): 12.5 µg/mL (≈ 13.3 µM)
- MIC [10]: 3.12 µg/mL (≈ 3.32 µM)
- MIC (Staphylococcus aureus): 6.25 µg/mL (≈ 6.65 µM)
- MIC [11]: 12.5 µg/mL (≈ 13.3 µM)
- MIC (Klebsiella X26): 32 µg/mL (≈ 34 µM)
- MIC (Escherichia coli TEM): 64 µg/mL (≈ 68.1 µM)
- MIC [12]: 2 µg/mL (≈ 2.13 µM)
- MIC [13]: 32 µg/mL (≈ 34 µM)
- pKa ([14]; Titratable groups): 8.6
- pKa [14, 18]: 7.4
- MIC [15]: 32 µg/mL (≈ 34 µM)
- MIC [16]: 4 µg/mL (≈ 4.25 µM)
- MIC [17]: 1 µg/mL (≈ 1.06 µM)

SMILES: CCC1OC(=O)CC(O)C(C)C(OC2OC(C)C(O)C(N(C)C)C2O)C(CCN2CCC(O)CC2)CC(C)C(=O)C=CC(C)=CC1COC1OC(C)C(O)C(OC)C1OC (stereo not drawn) [Compound D3, 20-DH-DO-20-(4-hydroxypiperidin-1-yl)desmycosin]
- MIC (Escherichia coli N10): > 128 µg/mL
- MIC [1]: 32 µg/mL (≈ 37.3 µM)
- MIC (Staphyloccus aureus X1.1): 8 µg/mL (≈ 9.33 µM)
- MIC (Escherichia coli EC14): > 128 µg/mL
- MIC [2]: 8 µg/mL (≈ 9.33 µM)
- MIC [3]: 8 µg/mL (≈ 9.33 µM)
- MIC [4]: 1 µg/mL (≈ 1.17 µM)
- MIC [5]: 64 µg/mL (≈ 74.7 µM)
- MIC [6]: 8 µg/mL (≈ 9.33 µM)
- MIC [7]: 50 µg/mL (≈ 58.3 µM)
- MIC [8]: 6.25 µg/mL (≈ 7.29 µM)
- MIC (Mycoplasma synoviae 40A): 6.25 µg/mL (≈ 7.29 µM)
- MIC (Mycoplasma hyorhinis 29E): 50 µg/mL (≈ 58.3 µM)
- MIC [9]: 50 µg/mL (≈ 58.3 µM)
- MIC (Streptococcus sp. 19F): 12.5 µg/mL (≈ 14.6 µM)
- MIC [10]: 25 µg/mL (≈ 29.2 µM)
- MIC (Staphylococcus aureus): 12.5 µg/mL (≈ 14.6 µM)
- MIC [11]: 50 µg/mL (≈ 58.3 µM)
- MIC (Klebsiella X26): 64 µg/mL (≈ 74.7 µM)
- MIC (Escherichia coli TEM): > 128 µg/mL
- MIC [12]: 8 µg/mL (≈ 9.33 µM)
- MIC [13]: 64 µg/mL (≈ 74.7 µM)
- pKa ([14]; Titratable groups): 8.7
- pKa [14, 18]: 7.1
- MIC [15]: 128 µg/mL (≈ 149 µM)
- MIC [16]: 16 µg/mL (≈ 18.7 µM)
- MIC [17]: 4 µg/mL (≈ 4.67 µM)
